{"source": "ChEMBL document CHEMBL2417463", "about": "“Synthesis and identification of new flavonoids targeting liver X receptor β involved pathway as potential facilitators of Aβ clearance with reduced lipid accumulation” (J Med Chem, 2013)", "type_in_all_cases": "cell-based", "key": {"[1]": {"biological_target": "T1, Oxysterols receptor LXR-beta (Homo sapiens) (UniProt P55055)", "T1 sequence (whole entry)": "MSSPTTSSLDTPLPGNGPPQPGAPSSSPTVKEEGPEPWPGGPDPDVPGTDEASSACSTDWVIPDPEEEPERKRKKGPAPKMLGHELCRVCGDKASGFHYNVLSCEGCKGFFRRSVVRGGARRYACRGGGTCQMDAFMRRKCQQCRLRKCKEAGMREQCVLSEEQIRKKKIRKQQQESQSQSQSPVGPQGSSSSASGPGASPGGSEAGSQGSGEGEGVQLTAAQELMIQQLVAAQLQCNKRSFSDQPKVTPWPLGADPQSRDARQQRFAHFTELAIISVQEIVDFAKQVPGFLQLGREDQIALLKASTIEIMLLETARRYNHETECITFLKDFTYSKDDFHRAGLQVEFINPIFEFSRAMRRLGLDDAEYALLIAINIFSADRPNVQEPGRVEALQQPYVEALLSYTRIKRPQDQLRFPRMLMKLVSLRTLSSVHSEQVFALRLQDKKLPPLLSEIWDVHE", "test": "Agonist activity at human LXRbeta transfected in HEK293 cells at 0.1 uM after 24 hrs by luciferase reporter gene assay relative to vehicle-treated control"}, "[2]": {"biological_target": "T2, Oxysterols receptor LXR-alpha (Homo sapiens) (UniProt Q13133)", "T2 sequence (whole entry)": "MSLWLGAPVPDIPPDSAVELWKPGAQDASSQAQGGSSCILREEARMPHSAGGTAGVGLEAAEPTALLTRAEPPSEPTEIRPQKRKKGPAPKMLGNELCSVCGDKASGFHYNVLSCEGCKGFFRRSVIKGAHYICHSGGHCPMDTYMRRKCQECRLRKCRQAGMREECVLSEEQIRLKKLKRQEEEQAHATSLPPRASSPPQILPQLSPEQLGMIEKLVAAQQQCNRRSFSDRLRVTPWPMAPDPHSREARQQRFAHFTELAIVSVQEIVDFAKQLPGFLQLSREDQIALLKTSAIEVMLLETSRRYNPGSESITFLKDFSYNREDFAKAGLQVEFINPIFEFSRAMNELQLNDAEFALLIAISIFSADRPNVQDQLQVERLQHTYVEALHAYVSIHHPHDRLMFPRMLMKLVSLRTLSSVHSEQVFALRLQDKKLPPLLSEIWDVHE", "test": "Agonist activity at human LXRalpha transfected in HEK293 cells at 1 uM after 24 hrs by luciferase reporter gene assay relative to vehicle-treated control"}, "[3]": {"biological_target": "T2, Oxysterols receptor LXR-alpha (Homo sapiens)", "test": "Agonist activity at human LXRalpha transfected in HEK293 cells at 0.1 uM after 24 hrs by luciferase reporter gene assay relative to vehicle-treated control"}, "[4]": {"biological_target": "T3, Oxysterols receptor LXR-beta (Mus musculus) (UniProt Q60644)", "T3 sequence (whole entry)": "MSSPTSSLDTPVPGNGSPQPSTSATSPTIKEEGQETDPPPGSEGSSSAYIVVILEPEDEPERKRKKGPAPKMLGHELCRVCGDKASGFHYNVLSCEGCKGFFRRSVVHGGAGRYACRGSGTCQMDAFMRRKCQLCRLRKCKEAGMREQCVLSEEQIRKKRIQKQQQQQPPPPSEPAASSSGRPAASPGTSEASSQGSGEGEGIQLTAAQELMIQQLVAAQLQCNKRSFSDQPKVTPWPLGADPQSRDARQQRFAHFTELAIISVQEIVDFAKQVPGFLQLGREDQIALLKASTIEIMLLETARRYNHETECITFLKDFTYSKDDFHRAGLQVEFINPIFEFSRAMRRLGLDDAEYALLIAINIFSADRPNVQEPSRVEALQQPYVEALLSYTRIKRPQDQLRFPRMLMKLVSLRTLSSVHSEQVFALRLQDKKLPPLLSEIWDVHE", "test": "Agonist activity at LXRbeta in mouse RAW264.7 cells assessed as induction of ABCA1 promoter activation at 1 uM after 24 hrs by Dual-Glo luciferase reporter gene assay relative to vehicle-treated control"}, "HEK293": {"tested_on": "HEK293", "test": "Cytotoxicity against HEK293 cells assessed as inhibition of cell viability at 50 uM after 48 hrs by SRB assay relative to vehicle-treated control", "conditions": "human, hek293, 48 h"}, "[5]": {"test": "Cytotoxicity against human HepG2 cells assessed as inhibition of cell viability at 50 uM after 48 hrs by SRB assay relative to vehicle-treated control", "conditions": "HepG2 cells, read-out: Activity"}, "BV-2": {"tested_on": "BV-2", "test": "Cytotoxicity against mouse BV2 cells assessed as inhibition of cell viability at 50 uM after 48 hrs by SRB assay relative to vehicle-treated control", "conditions": "bv-2, 48 h"}, "RAW264.7": {"tested_on": "RAW264.7", "test": "Cytotoxicity against mouse RAW264.7 cells assessed as inhibition of cell viability at 50 uM after 48 hrs by SRB assay relative to vehicle-treated control", "conditions": "raw264.7, 48 h"}, "HepG2 [6]": {"tested_on": "HepG2", "test": "Induction of cytoplasmic lipid accumulation in human HepG2 cells at 10 uM after 4 days by oil red O staining-based light microscopic analysis", "conditions": "hepg2, 96 h"}, "HepG2 [7]": {"tested_on": "HepG2", "test": "Induction of intracellular triglyceride accumulation in human HepG2 cells at 10 uM after 4 days relative to vehicle-treated control", "conditions": "hepg2, 96 h"}, "HepG2 [8]": {"tested_on": "HepG2", "test": "Induction of intracellular triglyceride accumulation in human HepG2 cells at 1 uM after 4 days relative to vehicle-treated control", "conditions": "hepg2, 96 h"}, "[9]": {"biological_target": "T3, Oxysterols receptor LXR-beta (Mus musculus)", "test": "Agonist activity at LXRbeta in mouse BV2 cells assessed as degradation of intracellular soluble amyloid beta42 at 1 uM preincubated for 18 hrs followed by soluble amyloid beta42 addition measured after 24 hrs by ELISA relative to vehicle-treated control", "conditions": "BV-2"}, "[10]": {"biological_target": "T3, Oxysterols receptor LXR-beta (Mus musculus)", "test": "Agonist activity at LXRbeta in mouse BV2 cells assessed as upregulation of apoE protein expression at 1 uM after 48 hrs by Western blot analysis relative to vehicle-treated control", "conditions": "BV-2"}, "[11]": {"biological_target": "T3, Oxysterols receptor LXR-beta (Mus musculus)", "test": "Agonist activity at LXRbeta in mouse BV2 cells assessed as upregulation of apoE protein expression at 0.1 uM after 48 hrs by Western blot analysis relative to vehicle-treated control", "conditions": "BV-2"}, "[12]": {"biological_target": "T3, Oxysterols receptor LXR-beta (Mus musculus)", "test": "Agonist activity at LXRbeta in mouse BV2 cells assessed as upregulation of ABCA1 protein expression after 12 to 48 hrs by Western blot analysis", "conditions": "BV-2"}, "[13]": {"biological_target": "T3, Oxysterols receptor LXR-beta (Mus musculus)", "test": "Agonist activity at LXRbeta in mouse BV2 cells assessed as upregulation of ABCA1 protein expression at 1 uM after 12 to 48 hrs by Western blot analysis", "conditions": "BV-2"}, "[14]": {"biological_target": "T3, Oxysterols receptor LXR-beta (Mus musculus)", "test": "Agonist activity at LXRbeta in mouse RAW264.7 cells assessed as upregulation of ABCA1 protein expression after 18 to 48 hrs by Western blot analysis"}, "[15]": {"biological_target": "T3, Oxysterols receptor LXR-beta (Mus musculus)", "test": "Agonist activity at LXRbeta in mouse RAW264.7 cells assessed as upregulation of ABCA1 protein expression at 1 uM after 18 to 48 hrs by Western blot analysis"}, "[16]": {"biological_target": "T1, Oxysterols receptor LXR-beta (Homo sapiens)", "test": "Agonist activity at human LXRbeta transfected in HEK293 cells at 1 uM after 24 hrs by luciferase reporter gene assay relative to vehicle-treated control"}}, "note": "Active and inactive are the calls of the source. The calls are words filed in the database; no cut-off is given here.", "data": [{"smiles": "O=c1cc(-c2c[nH]c3ccccc23)oc2cc(O)ccc12", "values": [{"measurement": "fold change (FC)", "setting": "[1]", "value": 1.19}, {"measurement": "fold change (FC)", "setting": "[2]", "value": 1.02}, {"measurement": "fold change (FC)", "setting": "[3]", "value": 1.32}, {"measurement": "fold change (FC)", "setting": "[4]", "value": 1.9}, {"measurement": "Activity", "setting": "HEK293", "value": "Non-toxic"}, {"measurement": "inhibition at 48 h, 50 µM", "setting": "[5]", "value": 45, "unit": "%"}, {"measurement": "Activity", "setting": "BV-2", "value": "Non-toxic"}, {"measurement": "Activity", "setting": "RAW264.7", "value": "Non-toxic"}, {"measurement": "Activity", "setting": "HepG2 [6]", "value": "Toxic"}, {"measurement": "Activity", "setting": "HepG2 [7]", "value": 18, "unit": "%"}, {"measurement": "Activity", "setting": "HepG2 [8]", "value": -6, "unit": "%"}, {"measurement": "Activity", "setting": "[9]", "value": 38, "unit": "%"}, {"measurement": "fold change (FC)", "setting": "[10]", "value": 1.4}, {"measurement": "fold change (FC)", "setting": "[11]", "value": 1.1}, {"measurement": "Activity", "setting": "[12]", "value": "Dose-dependent effect"}, {"measurement": "Activity", "setting": "[13]", "value": "Active"}, {"measurement": "Activity", "setting": "[14]", "value": "Dose-dependent effect"}, {"measurement": "Activity", "setting": "[15]", "value": "Active"}, {"measurement": "fold change (FC)", "setting": "[16]", "value": 1.76}]}]}
